Literature values as cited in patent US20190055521A1, “Methods Of Propagating Rhinovirus C In Previously Unsusceptible Cell Lines” (Wisconsin Alumni Research Foundation, priority 2014, published 2019).
Where two headings read alike, the source gives them in different places.

Assays:
RV-B [1] = conditions: unmodified HeLa cells; previously documented
RV-A [2] = conditions: unmodified HeLa cells; previously documented
RV-A [3] = conditions: unmodified HeLa cells; drug added to cells before infection; previously documented
RV-B [4] = conditions: unmodified HeLa cells; drug added to cells before infection; previously documented

| SMILES | inhibition of RV-B (RV-B [1]) | inhibition of RV-A (RV-A [2]) | inhibition of RV-A (RV-A [3]) | inhibition of RV-B (RV-B [4]) |
| --- | --- | --- | --- | --- |
| Cc1cc(CCCOc2c(C)cc(-c3noc(C(F)(F)F)n3)cc2C)on1 [Pleconaril] | inhibition | inhibition | – | – |
| CCOC(=O)/C=C/[C@H](C[C@@H]1CCNC1=O)NC(=O)[C@@H](CC(=O)[C@@H](NC(=O)c1cc(C)on1)C(C)C)Cc1ccc(F)cc1 [Rupintrivir] | – | – | inhibition | inhibition |
